Here are results for eleven compounds from ChEMBL document CHEMBL1151528, “The synthesis of heterosubstituted benzimidazole derivatives with potent angiotensin II antagonist activity” (Bioorg Med Chem Lett, 1993).

Assay [1] addresses Angiotensin II receptor (Rattus norvegicus) (UniProt P29089+P25095+P35351). Briefly: Inhibition of pressor response induced by Angiotensin II in Alderley Park Wistar rats after single intravenous dose. The class given is functional.
Assay [2] concerns the target angiotensin II receptor (Cavia porcellus). Briefly: Displacement of monoiodinated angiotensin II from guinea-pig adrenal gland angiotensin II receptor.

In turn, `CCCCc1nc2cnn(C)c(=O)c2n1Cc1ccc(-c2ccccc2C(=O)O)cc1` yielded an ED50 in assay [1] of 47 mg/kg. Also, in assay [2], the IC50 is 10 µM.
`CCCCc1nc2ccnc(O)c2n1Cc1ccc(-c2ccccc2-c2nn[nH]n2)cc1` displayed an ED50 in assay [1] of 0.35 mg/kg. Further, the IC50 in assay [2] amounted to 0.016 µM.
The corresponding values for `CCCCc1nc2cnnc(O)c2n1Cc1ccc(-c2ccccc2-c2nn[nH]n2)cc1` are 0.62 mg/kg and 0.022 µM.
Turning to `CCCCc1nc(C(=O)OCC)c(C(=O)OCC)n1Cc1ccc(-c2ccccc2-c2nn[nH]n2)cc1`, the IC50 in assay [2] came to 0.255 µM.
In assay [1], `CCCCc1nc2cnnc(O)c2n1Cc1ccc(-c2ccccc2C(=O)O)cc1` yielded an ED50 of 6.7 mg/kg.
`CCCCc1nc(Cl)c(CO)n1Cc1ccc(-c2ccccc2-c2nnn[nH]2)cc1` gave an ED50 in assay [1] of 0.65 mg/kg. Compared with the last compound, the ED50 is about 10-fold lower.
As for `CCCCc1nc2cnn(Cc3ccc(-c4ccccc4C(=O)OC)cc3)cc-2n1`, the IC50 in assay [2] was found to be 100 µM.
With `CCCCc1nc2ccccc2n1Cc1ccc(-c2ccccc2-c2nn[nH]n2)cc1`, in assay [1], the ED50 stood at 5.2 mg/kg.
In the case of `CCCCc1nc2c(=O)[nH][nH]c(=O)c2n1Cc1ccc(-c2ccccc2-c2nn[nH]n2)cc1`, the ED50 in assay [1] amounted to 0.04 mg/kg.
On to `CCCCc1nc2cnncc2n1Cc1ccc(-c2ccccc2C(=O)O)cc1`, for which the ED50 in assay [1] came to 5.2 mg/kg. The compound further returned an IC50 in assay [2] of 10 µM.
On to `CCc1nc2c(C)cc(C)nc2n1Cc1ccc(-c2ccccc2-c2nn[nH]n2)cc1`, for which the ED50 in assay [1] worked out at 0.22 mg/kg.
